The test system of series [1] is VCAM-1 mRNA. Nature of the series: Quantification of hVCAM mRNA. The following applies: VCAM-1 mRNA by real-time PCR; HUVECs, 1 h pretreatment, tumor necrosis factor-α stimulation 24 h; concentration ≤10 μM. It counts as cell-based, human. On the set-up: key: Active: an active compound is one that causes a ≥20% inhibition in VCAM-1 mRNA at a concentration less than or equal to 10 μM; -1 mRNA at a concentration less than or equal to 10 μM. In a few lines: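 HUVECs were pretreated 1 h with compound, then stimulated with TNF-α and harvested 24 h later. Isolated mRNA went into one-step qRT-PCR. hVCAM Ct values were normalized to an internal control and expressed as fold induction relative to control.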

Series [2] has as its system hIL-6 mRNA. Nature of the series: Quantification of hIL-6 mRNA. It counts as cell-based, human. On the set-up: key: Active: an active compound is one that causes a ≥20% inhibition in IL-6 mRNA at a concentration less than or equal to 10 μM. The following applies: IL-6 mRNA by real-time PCR; differentiated U937 cells, 1 h pretreatment, lipopolysaccharide stimulation 3 h; concentration ≤10 μM. In a few lines:
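U937 cells, differentiated for 3 days, were pretreated with compound for 1 h and then stimulated with E. coli LPS for 3 h at 37 °C. IL-6 mRNA was quantified by one-step qRT-PCR, with Ct normalized to an internal control, and fold induction was expressed relative to control.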
(Quantitative PCR measures a nucleic acid by following its amplification.)

The term melting point denotes the temperature of the solid-liquid transition. For `COc1cc(OC)c2c(=O)[nH]c(-c3cc(C)c(OCCN4C(=O)NC(c5ccccc5)C4=O)c(C)c3)nc2c1` (stereo not drawn) [3-(2-(4-(5,7-Dimethoxy-4-oxo-3,4-dihydroquinazolin-2-yl)-2,6-dimethylphenoxy)ethyl)-5-phenylimidazolidine-2,4-dione], the melting point is 219.6 to 221.4 °C. The “Inhibition of VCAM-1 expression” value in series [1] was “Active”. Moreover, the “Inhibition of IL-6 expression” value in series [2] was “Active”.

`COc1cccc2nc(-c3cc(C)c(OCCN4CCCC4)c(C)c3)[nH]c(=O)c12` [2-(3,5-Dimethyl-4-(2-(pyrrolidin-1-yl)ethoxy)phenyl)-5-methoxyquinazolin-4(3H)-one] had a melting point of 157 to 158 °C. Also, in series [1], the “Inhibition of VCAM-1 expression” value is listed as “Active”. For the same molecule, in series [2], the “Inhibition of IL-6 expression” value is “Active”.

In turn, `COc1cc(OC)c2c(=O)[nH]c(-c3cc(C)c(OCCCCN4CCCC4)c(C)c3)nc2c1` [2-(3,5-Dimethyl-4-(4-(pyrrolidin-1-yl)butoxy)phenyl)-5,7-dimethoxyquinazolin-4(3H)-one] gave a melting point of 180 to 181 °C. Besides, the “Inhibition of VCAM-1 expression” value in series [1] is recorded as “Active”. Moreover, in series [2], the “Inhibition of IL-6 expression” value is reported as “Active”.

The molecule `COc1cc(OC)c2c(=O)[nH]c(-c3cc(C)c(OCCN4CCCCCC4)c(C)c3)nc2c1` [2-(4-(2-(Azepan-1-yl)ethoxy)-3,5-dimethylphenyl)-5,7-dimethoxyquinazolin-4(3H)-one] yielded a melting point of 198 to 199 °C. In addition, the “Inhibition of VCAM-1 expression” value in series [1] is on record as “Active”. Besides, the “Inhibition of IL-6 expression” value in series [2] is recorded as “Active”.

`COCCOc1cc(OC)c2c(=O)[nH]c(-c3ccnc(C)c3)nc2c1` [5-methoxy-7-(2-methoxyethoxy)-2-(2-methylpyridin-4-yl)quinazolin-4(3H)-one]: the melting point was in the range of 260 to 262 °C. In addition, the “Inhibition of VCAM-1 expression” value in series [1] is given as “Active”. The “Inhibition of IL-6 expression” value in series [2] is “Active”.

Regarding `COc1cc(OCCN2CCCC2)cc(-c2nc3cc(OC)cc(OC)c3c(=O)[nH]2)c1` [5,7-Dimethoxy-2-(3-methoxy-5-(2-(pyrrolidin-1-yl)ethoxy)phenyl)quinazolin-4(3H)-one], the melting point lay within 159 to 160 °C. In addition, the “Inhibition of VCAM-1 expression” value in series [1] is on record as “Active”. In addition, the “Inhibition of IL-6 expression” value in series [2] is “Active”.

Regarding `COc1cc(OC)c2c(=O)[nH]c(-c3cc(C)c(CCCN4CCCC4)c(C)c3)nc2c1` [2-(3,5-Dimethyl-4-(3-(pyrrolidin-1-yl)propyl)phenyl)-5,7-dimethoxyquinazolin-4(3H)-one], the melting point was in the range of 194 to 196 °C. For the same molecule, the “Inhibition of VCAM-1 expression” value in series [1] was “Active”. In addition, the “Inhibition of IL-6 expression” value in series [2] was “Active”.

`COc1cc(OC)c2c(=O)[nH]c(-c3ccc(CN4C(=O)CNC4=O)cc3)nc2c1` [3-(4-(5,7-Dimethoxy-4-oxo-3,4-dihydroquinazolin-2-yl)benzyl)imidazolidine-2,4-dione] had a melting point of 317 to 318 °C. Besides, in series [1], the “Inhibition of VCAM-1 expression” value is “Active”. Besides, the “Inhibition of IL-6 expression” value in series [2] is “Active”.

Consider `Cc1cc(-c2nc3ccc(CCN4CCCC4)cc3c(=O)[nH]2)cc(C)n1` [2-(2,6-Dimethylpyridin-4-yl)-6-(2-(pyrrolidin-1-yl)ethyl)quinazolin-4(3H)-one], for which the melting point was in the range of 212.3 to 213.2 °C. In series [1], the “Inhibition of VCAM-1 expression” value is recorded as “Active”. The “Inhibition of IL-6 expression” value in series [2] was “Active”.

With `COc1cc(OC)c2c(=O)[nH]c(-c3cc(C)c(OCCn4ccnc4)c(C)c3)nc2c1` [2-(4-(2-(1H-Imidazol-1-yl)ethoxy)-3,5-dimethylphenyl)-5,7-dimethoxyquinazolin-4(3H)-one], the melting point lay in the range of 218 to 219 °C. Further, the “Inhibition of VCAM-1 expression” value in series [1] is given as “Active”. For the same molecule, the “Inhibition of IL-6 expression” value in series [2] is given as “Active”.

Take `COc1cc(OCCOC(C)C)cc2nc(-c3cc(C)nc(C)c3)[nH]c(=O)c12` [2-(2,6-Dimethylpyridin-4-yl)-7-(2-isopropoxyethoxy)-5-methoxyquinazolin-4(3H)-one]: the melting point was in the range of 188 to 189 °C. Moreover, the “Inhibition of VCAM-1 expression” value in series [1] was “Active”. The “Inhibition of IL-6 expression” value in series [2] is given as “Active”.

In turn, `COc1cc(OC)c2c(=O)[nH]c(-c3cc(C)c(OCCN4CCCC4)c(C)c3)nc2n1` [2-(3,5-Dimethyl-4-(2-(pyrrolidin-1-yl)ethoxy)phenyl)-5,7-dimethoxypyrido[2,3-d]pyrimidin-4(3H)-one] registered a melting point of 228 to 230 °C. Further, the “Inhibition of VCAM-1 expression” value in series [1] is “Active”. Further, the “Inhibition of IL-6 expression” value in series [2] was “Active”.

The molecule `COCCOc1cc(OCCOC)c2c(=O)[nH]c(-c3cc(C)nc(C)c3)nc2c1` [2-(2,6-Dimethylpyridin-4-yl)-5,7-bis(2-methoxyethoxy)quinazolin-4(3H)-one] had a melting point of 149.8 to 151.4 °C. Moreover, the “Inhibition of VCAM-1 expression” value in series [1] is “Active”. For the same molecule, the “Inhibition of IL-6 expression” value in series [2] was “Active”.

Regarding `COc1cc(OC)c2c(=O)[nH]c(-c3ccc(OCCN4CCCC4)c(C)c3)nc2c1` [5,7-Dimethoxy-2-(3-methyl-4-(2-(pyrrolidin-1-yl)ethoxy)phenyl)quinazolin-4(3H)-one], the melting point lay within 230 to 231 °C. In addition, in series [1], the “Inhibition of VCAM-1 expression” value is “Active”. Moreover, the “Inhibition of IL-6 expression” value in series [2] is on record as “Active”.

`Cc1cc(-c2nc3cc(OCCOC(C)C)cc(OCCOC(C)C)c3c(=O)[nH]2)cc(C)n1` [2-(2,6-dimethylpyridin-4-yl)-5,7-bis(2-isopropoxyethoxy)quinazolin-4(3H)-one]: the melting point lay in the range of 124 to 125 °C. In addition, the “Inhibition of VCAM-1 expression” value in series [1] is on record as “Active”. The “Inhibition of IL-6 expression” value in series [2] is listed as “Active”.

`Cc1cc(-c2nc3ccc(CCN4CCOCC4)cc3c(=O)[nH]2)cc(C)n1` [2-(2,6-Dimethylpyridin-4-yl)-6-(2-morpholinoethyl)quinazolin-4(3H)-one] yielded a melting point of 248.5 to 249.3 °C. Also, the “Inhibition of VCAM-1 expression” value in series [1] was “Inactive”. Further, in series [2], the “Inhibition of IL-6 expression” value is recorded as “Active”.

`COc1cc(OC)cc(-c2nc3ccc(Nc4ccncc4)cc3c(=O)[nH]2)c1` [2-(3,5-Dimethoxyphenyl)-6-(pyridin-4-ylamino)quinazolin-4(3H)-one]: the melting point lay within 289 to 290 °C. The “Inhibition of VCAM-1 expression” value in series [1] is listed as “Inactive”. Moreover, the “Inhibition of IL-6 expression” value in series [2] is “Active”.

Molecule `COc1cc(OCCOCc2ccccc2)cc2nc(-c3cc(C)nc(C)c3)[nH]c(=O)c12` [7-(2-(Benzyloxy)ethoxy)-2-(2,6-dimethylpyridin-4-yl)-5-methoxyquinazolin-4(3H)-one] had a melting point of 178 to 180 °C. For the same molecule, in series [1], the “Inhibition of VCAM-1 expression” value is reported as “Active”. In addition, in series [2], the “Inhibition of IL-6 expression” value is “Active”.

For `COc1ccc2nc(-c3cc(C)c(OCCN4CCCC4)c(C)c3)[nH]c(=O)c2c1` [2-(3,5-Dimethyl-4-(2-(pyrrolidin-1-yl)ethoxy)phenyl)-6-methoxyquinazolin-4(3H)-one], the melting point fell in the range of 201.2 to 203.1 °C. In addition, the “Inhibition of VCAM-1 expression” value in series [1] is reported as “Active”. Besides, the “Inhibition of IL-6 expression” value in series [2] is “Active”.

In the case of `COCCOc1cc(OCCN2CCCC2)c2c(=O)[nH]c(-c3cc(C)nc(C)c3)nc2c1` [2-(2,6-Dimethylpyridin-4-yl)-7-(2-methoxyethoxy)-5-(2-(pyrrolidin-1-yl)ethoxy)quinazolin-4(3H)-one], the melting point was 60.4 to 62.3 °C. In addition, the “Inhibition of VCAM-1 expression” value in series [1] is “Active”. Moreover, in series [2], the “Inhibition of IL-6 expression” value is recorded as “Active”.

The molecule `COc1cc(OCCOc2ccccc2)cc2nc(-c3cc(C)nc(C)c3)[nH]c(=O)c12` [2-(2,6-Dimethylpyridin-4-yl)-5-methoxy-7-(2-phenoxyethoxy)quinazolin-4(3H)-one] registered a melting point of 223 to 224 °C. For the same molecule, in series [1], the “Inhibition of VCAM-1 expression” value is given as “Active”. The “Inhibition of IL-6 expression” value in series [2] is recorded as “Active”.

The molecule `Cc1cc(-c2nc3cc(Cl)cc(Cl)c3c(=O)[nH]2)cc(C)c1OCCN1CCCC1` [5,7-Dichloro-2-(3,5-dimethyl-4-(2-(pyrrolidin-1-yl)ethoxy)phenyl)quinazolin-4(3H)-one] displayed a melting point of 209 to 210 °C. Further, the “Inhibition of VCAM-1 expression” value in series [1] is “Active”. The “Inhibition of IL-6 expression” value in series [2] is “Active”.

`COc1cc(OCCOCc2ccccc2)cc2nc(-c3ccncc3)[nH]c(=O)c12` [7-(2-(Benzyloxy)ethoxy)-5-methoxy-2-(pyridin-4-yl)quinazolin-4(3H)-one]: the melting point fell in the range of 228.2 to 229.9 °C. In addition, the “Inhibition of VCAM-1 expression” value in series [1] is reported as “Active”. Besides, the “Inhibition of IL-6 expression” value in series [2] is on record as “Active”.

For the molecule `COc1cc(OC)c2c(=O)[nH]c(-c3cc(C)c(OCCN4C(=O)CN(C(C)C)C4=O)c(C)c3)nc2c1` [3-(2-(4-(5,7-Dimethoxy-4-oxo-3,4-dihydroquinazolin-2-yl)-2,6-dimethylphenoxy)ethyl)-1-isopropylimidazolidine-2,4-dione], the melting point fell in the range of 219 to 221 °C. For the same molecule, the “Inhibition of VCAM-1 expression” value in series [1] is on record as “Active”. Moreover, the “Inhibition of IL-6 expression” value in series [2] was “Active”.

As to `Cc1cc(-c2nc3cccc(Cl)c3c(=O)[nH]2)cc(C)c1OCCN1CCCC1` [5-Chloro-2-(3,5-dimethyl-4-(2-(pyrrolidin-1-yl)ethoxy)phenyl)quinazolin-4(3H)-one], the melting point was 179 to 180 °C. In series [1], the “Inhibition of VCAM-1 expression” value is given as “Active”. For the same molecule, in series [2], the “Inhibition of IL-6 expression” value is reported as “Active”.

These data come from patent US11407719B2, “Anti-inflammatory agents” (Resverlogix Corp., priority 2009, dated 2022).
